Results from article PMC9253107, “Engineering of ultraID, a compact and hyperactive enzyme for proximity-dependent biotinylation in living cells” (Communications Biology, 2022).

Biological target: T1, microID (BioID2 [2-171]); with L41P = ultraID (Aquifex aeolicus, UniProt O66837, R40G/L41P)
T1 construct: gene birA; pET22b, E. coli BL21(DE3), IMAC purified
Assay: ELISA-based biotinylation assay, streptavidin-alkaline phosphatase
Assay type: biochemical
Settings: 50 µM biotin, 2.5 mM ATP, 5 mM MgCl2, pH 7.5, 37 °C, 10 min; acceptor human serum albumin

T1 sequence (O66837 entry or part of it R40G/L41P): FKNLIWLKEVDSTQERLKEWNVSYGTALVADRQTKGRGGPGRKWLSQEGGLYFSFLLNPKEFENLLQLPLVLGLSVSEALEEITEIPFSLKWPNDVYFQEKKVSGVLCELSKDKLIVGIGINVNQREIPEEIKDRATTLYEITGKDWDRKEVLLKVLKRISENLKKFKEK

O=C(O)CCCC[C@@H]1SC[C@@H]2NC(=O)N[C@@H]21 [biotin]
ELISA-based biotinylation assay, streptavidin-alkaline phosphatase: combined R40G/L41P mutations showed the highest activity of all tested variants
